The record followed here is US20240034753A1, “THERAPEUTIC PEPTIDES” (COHBAR, INC., priority 2020, published 2024).

Ends that are not written are not given here.

Data set [1] concerns A172 Cells. Kind of data set: PrestoBlue cell viability assay. The following applies: human, 10 μM. Type of data set: cell-based. The method, then: The effect of the peptides on cell viability can be assessed in cultured cells using suitable assay of viability such as the PrestoBlue® assay (Thermo Fisher Scientific, Waltham, MA). Peptides were initially prepared as 10 mM stock in DMSO and tested at a final concentration of 10 μM (0.1% DMSO). […] PrestoBlue Assay Reagent was purchased from Thermo Fisher Scientific. A172 human brain glioblastoma cell line was purchased from American Type Culture Collection (Manassas, VA). A172 cells were grown in DMEM supplemented with 10% FBS with 100 IU/ml penicillin and 100 μg/ml streptomycin. Cultures were maintained at 37° C. in a humidified atmosphere of 5% CO2/95% air. A172 cells were seeded at 8,000 cells per well on 96-well plates. […] Cell viability was determined using a PrestoBlue Assay reagent […] according to the manufacturer's instructions. Absorption for each sample well on the plate was measured using a Cytation 3 plate reader at 560 nm and 590 nm (BioTek, Winooski, VT). Activity was calculated relative to 0.1% DMSO untreated control. Treatment with 0.1% DMSO alone was used as the cell viability activity control. The relative standard deviation of the DMSO control was <5%.

Data set [2] concerns 3T3-L1 Mouse Adipocytes. Nature of the data set: Free fatty acid levels in cultured mouse adipocytes stimulated with isoproterenol. Type of data set: cell-based. The conditions noted are these: peptide 10 μM, 20-22 hours then 3 hours with 1 nM isoproterenol; relative to isoproterenol treated cells. The method, then: The effect of the peptides on fatty acid metabolism can be assessed using an assay of free fatty acid levels in cultured cells such as mouse adipocytes. Peptides were initially prepared as 10 mM stock in DMSO and used at a final concentration of 10 μM (0.1% DMSO). […] Mouse 3T3-L1 cells purchased from ZenBio were seeded at 3,000 cells per well in 96-well plates in Pre-adipocyte Medium (Zen-Bio) and grown to confluence at 37° C. in a humidified atmosphere of 5% CO2/95% air. Two days after confluence, cells were placed in Adipocyte Differentiation Medium (Zen-Bio) and cultured for three additional days at 37° C. in a humidified atmosphere of 5% CO2/95% air. The culture media was then replaced with Adipocyte Maintenance Medium (Zen-Bio) and the cells maintained for an additional 9-12 days at 37° C. in a humidified atmosphere of 5% CO2/95% air with partial medium replacement every other day. Following 12-15 days of differentiation, test peptides were added at a final concentration of 10 μM in 0.1% DMSO and incubated for 20-22 hours in Adipocyte Maintenance Medium at 37° C. in a humidified atmosphere of 5% CO2/95% air. After 20-22 hours, 1 nM isoproterenol was added to all wells except untreated controls and test peptides were replenished. Insulin at 100 nM was added to control wells. Cells were incubated for 3 hours in Assay Buffer (Zen-Bio) at 37° C. in a humidified atmosphere of 5% CO2/95% air. Free fatty acid concentrations in the media were determined using a Free Fatty Acid Assay kit (Zen-Bio) according to the manufacturer's instructions using a Cytation 3 plate reader at 540 nm (BioTek, Winooski, VT). Absorbance values were corrected for untreated background and expressed relative to isoproterenol treated cells. Treatment with isoproterenol (1 nM) alone was used as the free fatty acid level stimulatory control. The relative standard deviation of the isoproterenol control was <10%. […] Free fatty acid levels for insulin (100 nM) treatment were <5% of the isoproterenol control value.

Turning to MLLILTLVLL [compound 2], in data set [1], the “PrestoBlue cell viability, Percent of Control Activity” value (from here on “PrestoBlue cell viability, Percent”) stood at 94.4%. Further, the “Free Fatty Acid Levels, MEAN %ISO” value in data set [2] is 80.7%.

MMAGVIRGVLVL [compound 7]: in data set [1], the “PrestoBlue cell viability, Percent” value came to 86.2%. Also, the “Free Fatty Acid Levels, MEAN %ISO” value in data set [2] is recorded as 66.4%.

In the case of MRQWILHNGGMSFFC [compound 12], the “PrestoBlue cell viability, Percent” value in data set [1] worked out at 100.5%. In addition, in data set [2], the “Free Fatty Acid Levels, MEAN %ISO” value turned out to be 67.1%.

Turning to MRRRMFSCYLY [compound 17], the “PrestoBlue cell viability, Percent” value in data set [1] amounted to 100.6%. For the same sequence, the “Free Fatty Acid Levels, MEAN %ISO” value in data set [2] is given as 46.1%.

With RQWILHNGGMSFFC [compound 13], the “PrestoBlue cell viability, Percent” value in data set [1] was 99.1%. For the same sequence, the “Free Fatty Acid Levels, MEAN %ISO” value in data set [2] turned out to be 74.0%.

For the sequence RRRMFSCYLY [compound 18], the “PrestoBlue cell viability, Percent” value in data set [1] was found to be 100.9%. Besides, the “Free Fatty Acid Levels, MEAN %ISO” value in data set [2] is recorded as 58.5%.
